Measured values taken from US10316028B2, “Orexin receptor antagonists” (Heptares Therapeutics Limited, priority 2012, dated 2019).

These compounds were tested against T1, human Orexin-2 receptor (Homo sapiens, UniProt O43614) (assay: 3H-EMPA radioligand binding assay). Details: 3H-EMPA displacement, membranes of HEK293 cells transfected with human Orexin-2 receptor; KI by Cheng-Prussoff; read-out: OX2 pKi ave (converted).
T1 construct: expressed in transfected cells; host or cells: HEK293 cells (transient transfection, Genejuice); membranes
T1 sequence (O43614 1-444): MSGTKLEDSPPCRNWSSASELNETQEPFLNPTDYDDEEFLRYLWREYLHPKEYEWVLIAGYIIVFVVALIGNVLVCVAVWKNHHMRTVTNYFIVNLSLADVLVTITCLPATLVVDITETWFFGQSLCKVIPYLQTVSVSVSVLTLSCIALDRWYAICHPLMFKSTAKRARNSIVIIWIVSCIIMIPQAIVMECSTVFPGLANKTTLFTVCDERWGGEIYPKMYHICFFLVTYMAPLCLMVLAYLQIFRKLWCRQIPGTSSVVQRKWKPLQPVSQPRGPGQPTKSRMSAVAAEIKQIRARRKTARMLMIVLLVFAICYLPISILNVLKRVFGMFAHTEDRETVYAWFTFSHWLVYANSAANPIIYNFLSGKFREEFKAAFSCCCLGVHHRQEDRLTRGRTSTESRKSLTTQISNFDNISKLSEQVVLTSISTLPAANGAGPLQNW
In short: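 Membranes from HEK293 cells transiently transfected with human orexin-2 receptor cDNA, assayed with [3H]EMPA. Bound ligand collected on PEI-treated GF/B filters and counted by scintillation; IC50 from inhibition curves, Ki by Cheng-Prusoff.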

Row | SMILES | Ki [nM]
1 | COc1ccc(N2C(=O)N(Cc3ccc(Cl)cc3F)c3ccncc3S2(=O)=O)cc1OC [Example 92, 4-(4-Chloro-2-fluorobenzyl)-2-(3,4-dimethoxyphenyl)-2H-pyrido[4,3-e][1,2,4]thiadiazin-3(4H)-one 1,1-dioxide] | 741
2 | COc1ccc(N2C(=O)N(Cc3c(F)cc(F)cc3F)c3ncccc3S2(=O)=O)cc1OC [Example 93, 2-(3,4-Dimethoxyphenyl)-4-(2,4,6-trifluorobenzyl)-2H-pyrido[2,3-e][1,2,4]thiadiazin-3(4H)-one 1,1-dioxide] | 1.2
3 | COc1ccc(N2C(=O)N(Cc3c(F)cccc3Cl)c3ncccc3S2(=O)=O)cc1OC [Example 94, 4-(2-Chloro-6-fluorobenzyl)-2-(3,4-dimethoxyphenyl)-2H-pyrido[2,3-e][1,2,4]thiadiazin-3(4H)-one 1,1-dioxide] | 0.776
4 | COc1cc(F)c(CN2C(=O)N(c3ccc(OC)c(OC)c3)S(=O)(=O)c3cccnc32)c(F)c1 [Example 95, 4-(2,6-Difluoro-4-methoxybenzyl)-2-(3,4-dimethoxyphenyl)-2H-pyrido[2,3-e][1,2,4]thiadiazin-3(4H)-one 1,1-dioxide] | 0.129
5 | COc1ccc(N2C(=O)N(Cc3ncc(F)cc3F)c3ncccc3S2(=O)=O)cc1OC [Example 96, 4-[(3,5-Difluoropyridin-2-yl)methyl]-2-(3,4-dimethoxyphenyl)-2H-pyrido[2,3-e][1,2,4]thiadiazin-3(4H)-one 1,1-dioxide] | 13.2
6 | COc1ccc(N2C(=O)N(Cc3c(F)cc(Cl)cc3F)c3ncccc3S2(=O)=O)cc1OC [Example 97, 4-(4-Chloro-2,6-difluorobenzyl)-2-(3,4-dimethoxyphenyl)-2H-pyrido[2,3-e][1,2,4]thiadiazin-3(4H)-one 1,1-dioxide] | 0.661
7 | COc1cc(N2C(=O)N(Cc3c(F)cc(F)cc3F)c3ncccc3S2(=O)=O)cc(OC)n1 [Example 98, 2-(2,6-Dimethoxypyridin-4-yl)-4-(2,4,6-trifluorobenzyl)-2H-pyrido[2,3-e][1,2,4]thiadiazin-3(4H)-one 1,1-dioxide] | 1.48
8 | COc1ccc(N2C(=O)N(Cc3c(F)cc(F)cc3F)c3ncccc3S2(=O)=O)nc1OC [Example 99, 2-(5,6-Dimethoxypyridin-2-yl)-4-(2,4,6-trifluorobenzyl)-2H-pyrido[2,3-e][1,2,4]thiadiazin-3(4H)-one 1,1-dioxide] | 1.55
9 | Cc1ccc(N2C(=O)N(Cc3c(F)cc(F)cc3F)c3ncccc3S2(=O)=O)cc1C [Example 101, 2-(3,4-Dimethylphenyl)-4-(2,4,6-trifluorobenzyl)-2H-pyrido[2,3-e][1,2,4]thiadiazin-3(4H)-one 1,1-dioxide] | 3.47
10 | COc1cc(F)c(CN2C(=O)N(c3ccc(C)c(C)c3)S(=O)(=O)c3cccnc32)c(F)c1 [Example 102, 4-(2,6-Difluoro-4-methoxybenzyl)-2-(3,4-dimethylphenyl)-2H-pyrido[2,3-e][1,2,4]thiadiazin-3(4H)-one 1,1-dioxide] | 0.776
11 | Cc1cc(C)cc(N2C(=O)N(Cc3c(F)cc(F)cc3F)c3ncccc3S2(=O)=O)c1 [Example 103, 2-(3,5-Dimethylphenyl)-4-(2,4,6-trifluorobenzyl)-2H-pyrido[2,3-e][1,2,4]thiadiazin-3(4H)-one 1,1-dioxide] | 4.27
12 | COc1ccc(N2C(=O)N(Cc3c(F)cc(F)cc3OC)c3ccccc3S2(=O)=O)cc1OC [Example 104, 4-(2,4-Difluoro-6-methoxybenzyl)-2-(3,4-dimethoxyphenyl)-2H-1,2,4-benzothiadiazin-3(4H)-one 1,1-dioxide] | 7.08
13 | COc1ccc(N2C(=O)N(Cc3c(F)cc(F)cc3F)c3ccccc3S2(=O)=O)cc1OC [Example 105, 2-(3,4-Dimethoxyphenyl)-4-(2,4,6-trifluorobenzyl)-2H-1,2,4-benzothiadiazin-3(4H)-one 1,1-dioxide] | 1.95
14 | COc1ccc(N2C(=O)N(Cc3c(F)cc(C)cc3Cl)c3ccccc3S2(=O)=O)cc1OC [Example 106, 4-(2-Chloro-6-fluoro-4-methylbenzyl)-2-(3,4-dimethoxyphenyl)-2H-1,2,4-benzothiadiazin-3(4H)-one 1,1-dioxide] | 0.741
15 | COc1ccc(N2C(=O)N(Cc3c(F)cc(F)cc3Cl)c3ccccc3S2(=O)=O)cc1OC [Example 107, 4-(2-Chloro-4,6-difluorobenzyl)-2-(3,4-dimethoxyphenyl)-2H-1,2,4-benzothiadiazin-3(4H)-one 1,1-dioxide] | 1.05
16 | COc1cc(F)c(CN2C(=O)N(c3ccc(OC)c(OC)c3)S(=O)(=O)c3ccccc32)c(F)c1 [Example 108, 2-(3,4-Dimethoxyphenyl)-4-(2,6-difluoro-4-methoxybenzyl)-2H-1,2,4-benzothiadiazin-3(4H)-one 1,1-dioxide] | 0.468

Row | SMILES | Ki [nM]
17 | COc1cc(F)c(CN2C(=O)N(c3cccc(SC)c3)S(=O)(=O)c3ccccc32)c(F)c1 [Example 109, 4-(2,6-Difluoro-4-methoxybenzyl)-2-[3-(methylsulfanyl)phenyl]-2H-1,2,4-benzothiadiazin-3(4H)-one 1,1-dioxide] | 3.24
18 | CSc1cccc(N2C(=O)N(Cc3c(F)cc(F)cc3Cl)c3ccccc3S2(=O)=O)c1 [Example 110, 4-(2-Chloro-4,6-difluorobenzyl)-2-[3-(methylsulfanyl)phenyl]-2H-1,2,4-benzothiadiazin-3(4H)-one 1,1-dioxide] | 2.69
19 | COc1cc(F)c(CN2C(=O)N(c3cccc(S(C)(=O)=O)c3)S(=O)(=O)c3ccccc32)c(F)c1 [Example 111, 4-(2,6-Difluoro-4-methoxybenzyl)-2-[3-(methylsulfonyl)phenyl]-2H-1,2,4-benzothiadiazin-3(4H)-one 1,1-dioxide] | 2.24
20 | CS(=O)(=O)c1cccc(N2C(=O)N(Cc3c(F)cc(F)cc3F)c3ccccc3S2(=O)=O)c1 [Example 112, 2-[3-(Methylsulfonyl)phenyl]-4-(2,4,6-trifluorobenzyl)-2H-1,2,4-benzothiadiazin-3(4H)-one 1,1-dioxide] | 26.9
21 | COc1cc(F)c(CN2C(=O)N(c3ccc(OC)c(OC)c3)S(=O)(=O)c3ccccc32)c(Cl)c1 [Example 113, 4-(2-Chloro-6-fluoro-4-methoxybenzyl)-2-(3,4-dimethoxyphenyl)-2H-1,2,4-benzothiadiazin-3(4H)-one 1,1-dioxide] | 0.0912
22 | Cc1cc(N2C(=O)N(Cc3c(F)cc(F)cc3F)c3ccccc3S2(=O)=O)cc(C)c1O [Example 114, 2-(4-Hydroxy-3,5-dimethylphenyl)-4-(2,4,6-trifluorobenzyl)-2H-1,2,4-benzothiadiazin-3(4H)-one 1,1-dioxide] | 12.9
23 | COc1c(C)cc(N2C(=O)N(Cc3c(F)cc(F)cc3F)c3ccccc3S2(=O)=O)cc1C [Example 115, 2-(4-methoxy-3,5-dimethylphenyl)-4-(2,4,6-trifluorobenzyl)-2H-1,2,4-benzothiadiazin-3(4H)-one 1,1-dioxide] | 0.355
24 | COc1ccc(N2C(=O)N(Cc3c(F)cc(O)cc3F)c3ccccc3S2(=O)=O)cc1OC [Example 116, 4-(2,6-Difluoro-4-hydroxybenzyl)-2-(3,4-dimethoxyphenyl)-2H-1,2,4-benzothiadiazin-3(4H)-one 1,1-dioxide] | 1.15
25 | O=C1N(Cc2c(F)cccc2Cl)c2ccccc2S(=O)(=O)N1CC1CCOCC1 [Example 117, 4-(2-Chloro-6-fluorobenzyl)-2-(tetrahydro-2H-pyran-4-ylmethyl)-2H-1,2,4-benzothiadiazin-3(4H)-one 1,1-dioxide] | 372
26 | CC1(CN2C(=O)N(Cc3c(F)cccc3Cl)c3ccccc3S2(=O)=O)COC1 [Example 118, 4-(2-Chloro-6-fluorobenzyl)-2-[(3-methyloxetan-3-yl)methyl]-2H-1,2,4-benzothiadiazin-3(4H)-one 1,1-dioxide] | 372
27 | Cc1nc(CN2C(=O)N(Cc3c(F)cccc3F)c3ccccc3S2(=O)=O)cs1 [Example 119, 4-(2,6-Difluorobenzyl)-2-[(2-methyl-1,3-thiazol-4-yl)methyl]-2H-1,2,4-benzothiadiazin-3(4H)-one 1,1-dioxide] | 66.1
28 | Cc1noc(C)c1CCN1C(=O)N(Cc2c(F)cccc2F)c2ccccc2S1(=O)=O [Example 120, 4-(2,6-Difluorobenzyl)-2-[2-(3,5-dimethyl-1,2-oxazol-4-yl)ethyl]-2H-1,2,4-benzothiadiazin-3(4H)-one 1,1-dioxide] | 178
29 | COc1ccnc(CN2C(=O)N(Cc3c(F)cccc3F)c3ccccc3S2(=O)=O)c1OC [Example 121, 4-(2,6-Difluorobenzyl)-2-[(3,4-dimethoxypyridin-2-yl)methyl]-2H-1,2,4-benzothiadiazin-3(4H)-one 1,1-dioxide] | 87.1
30 | COc1ccc(N2C(=O)N(Cc3c(F)cccc3Cl)c3ccccc3S2(=O)=O)cn1 [Example 122, 4-(2-Chloro-6-fluorobenzyl)-2-(6-methoxypyridin-3-yl)-2H-1,2,4-benzothiadiazin-3(4H)-one 1,1-dioxide] | 16.6
31 | COc1ccc(N2C(=O)N(Cc3c(F)cccc3Cl)c3c(F)cccc3S2(=O)=O)cn1 [Example 123, 4-(2-Chloro-6-fluorobenzyl)-5-fluoro-2-(6-methoxypyridin-3-yl)-2H-1,2,4-benzothiadiazin-3(4H)-one 1,1-dioxide] | 43.7
